According to patent US11028090B2 (Dong Wha Pharm. Co., Ltd., priority 2017, dated 2021):
Where two headings read alike, the source gives them in different places.

Legend:
[1] = test system: thymus cancer cells (Ty-82 cells); test: Cytotoxicity to thymus cancer cells (Ty-82 cells), WST-1; conditions: Homo sapiens, TY82, 72 h
Experimental: The following experiment was performed to evaluate the cytotoxicity of [1,2,4]triazolo[4,3-a]quinoxaline derivative according to the present invention to thymus cancer cells (Ty-82 cells).
First, thymus cancer cells (Ty-82 cells) were distributed in a 96 well plate at the density of 2.5×10^4 cells/well. 24 hours later, the plated cells were treated with the compounds of the present invention dissolved in DMSO at the different concentrations ranging from 0.01 μM to 10 μM. 72 hours later, the activities of the compounds were determined using WST-1 reagent.

[2] = test system: acute myelogenous leukemia cells (MV-4-11 cells); test: Cytotoxicity to acute myelogenous leukemia cells (MV-4-11 cells), CCK-8; conditions: Homo sapiens, MV4-11, 72 h
Experimental: The following experiment was performed to evaluate the cytotoxicity of [1,2,4]triazolo[4,3-a]quinoxaline derivative according to the present invention to acute myelogenous leukemia cells (MV-4-11 cells).
Acute myelogenous leukemia cells (MV-4-11 cells) were distributed in a 96 well plate at the density of 5×10^3 cells/well. The plated cells were treated with the compounds of the present invention dissolved in DMSO at the different concentrations ranging from 0.01 μM to 10 μM. 72 hours later, the activities of the compounds were determined using CCK-8 reagent.

[3] = molecular target: BRD4 (BD1+BD2) bromodomain (Homo sapiens (Human), UniProt O60885); test: BRD4 binding inhibition (AlphaScreen, GST-BRD4 vs tetraacetylated histone H4 peptide)
Outline: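 GST-BRD4 (BD1+BD2) and biotinylated tetraacetyl-histone H4 peptide, each at 100 nM in HEPES pH 7.4 buffer with BSA and DTT, were combined with compound. Glutathione acceptor and streptavidin donor beads were added, then incubated 30 min at room temperature in the dark. Read-out was AlphaScreen signal.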

[4] = read-out: Ty-82 Cytotoxicity IC50
[5] = read-out: MV-4-11 Cytotoxicity IC50
[6] = GST-BRD4 (BD1+BD2) / biotinylated acetyl-histone H4 (Lys5,8,12,16) peptide, read-out: IC50, BRD4 binding inhibition
[7] = GST-BRD4 (BD1+BD2) vs biotinylated acetyl-histone H4 peptide, AlphaScreen, read-out: BRD4 IC50
[8] = read-out: IC50, cytotoxicity against thymus cancer cells
[9] = read-out: IC50, cytotoxicity against acute myelogenous leukemia cells

Structure (SMILES) | IC50 [1, 4] [µM] | IC50 [2, 5] [µM] | IC50 [3, 6] [µM] | IC50 [3, 7] [µM] | IC50 [1, 8] [µM] | IC50 [2, 9] [µM] | IC50 ([3]; IC50, BRD4 binding inhibition, GST-BRD4 (BD1+BD2) / biotinylated acetyl-histone H4 (Lys5,8,12,16) peptide) [µM]
Cc1nnc2c(NCCCCNC(=O)NC(C)C)nc3cc4c(cc3n12)OCCO4 [Example 192, 1-isopropyl-3-[4-(1-methyl-8,9-dihydro-7,10-dioxa-2,3,5,11b-tetraaza-cyclopenta[a]anthracene-4-ylamino)-butyl]-urea] | 0.68 | 0.42 | ≤ 0.05 | 0.034 | – | – | –
COc1cc2nc(NCCCCNC(=O)OC3CCCC3)c3nnc(C)n3c2cc1OC [Example 66, [4-(7,8-dimethoxy-1-methyl-[1,2,4]triazolo[4,3-a]quinoxaline-4-ylamino)-butyl]-carbamic acid cyclopentyl-ester] | 0.058 | 0.11 | ≤ 0.05 | 0.013 | ≤ 0.5 | ≤ 0.2 | –
COc1cc2nc(NCCCCNC(=O)OCC(C)C)c3nnc(C)n3c2cc1OC [Example 62, [4-(7,8-dimethoxy-1-methyl-[1,2,4]triazolo[4,3-a]quinoxaline-4-ylamino)-butyl]-carbamic acid isobutylester] | 0.29 | 0.12 | ≤ 0.01 | 0.007 | ≤ 0.5 | ≤ 0.2 | –
COc1ccc2c(c1)nc(NCCCCNC(=O)OCC(C)C)c1nnc(C)n12 [Example 279, [4-(7-methoxy-1-methyl-[1,2,4]triazolo[4,3-a]quinoxaline-4-ylamino)-butyl]-carbamic acid isobutylester] | 0.12 | 0.14 | ≤ 0.05 | 0.018 | ≤ 0.5 | ≤ 0.2 | –
COc1cc2nc(NCCCCNC(=O)CC(C)C)c3nnc(C)n3c2cc1C [Example 469, N-[4-(7-methoxy-1,8-dimethyl-[1,2,4]triazolo[4,3-a]quinoxaline-4-ylamino)-butyl]-3-methyl-butyramide] | 0.094 | 0.01 | – | 0.055 | ≤ 0.5 | ≤ 0.2 | –
Cc1nnc2c(NCCCCNC(=O)CC(C)C)nc3cc4c(cc3n12)OCCO4 [Example 181, 3-methyl-N-[4-(1-methyl-8,9-dihydro-7,10-dioxa-2,3,5,11b-tetraaza-cyclopenta[a]anthracene-4-ylamino)-butyl]-butyramide] | 0.3 | 0.05 | ≤ 0.05 | 0.017 | ≤ 0.5 | ≤ 0.2 | –
COCCOc1cc2nc(NCCCCNC(=O)CC(C)(C)C)c3nnc(C)n3c2cc1OCCOC [Example 167, N-{4-[7,8-bis-(2-methoxy-ethoxy)-1-methyl-[1,2,4]triazolo[4,3-a]quinoxaline-4-ylamino]-butyl}-3,3-dimethyl-butyramide] | 0.88 | 0.51 | ≤ 0.05 | 0.04 | – | – | –
COc1cc2nc(NCCCCNC(=O)OCC(C)C)c3nnc(C)n3c2cc1C [Example 468, [4-(7-methoxy-1,8-dimethyl-[1,2,4]triazolo[4,3-a]quinoxaline-4-ylamino)-butyl]-carbamic acid isobutylester] | 0.23 | 0.073 | ≤ 0.05 | 0.022 | ≤ 0.5 | ≤ 0.2 | –
COc1cc2nc(NCCCCNC(=O)c3cccc(Cl)c3Cl)c3nnc(C)n3c2cc1OC [Example 102, 2,3-dichloro-N-[4-(7,8-dimethoxy-1-methyl-[1,2,4]triazolo[4,3-a]quinoxaline-4-ylamino)-butyl]-benzamide] | 0.84 | 0.36 | ≤ 0.05 | – | – | – | –
COc1cc2nc(NCCCCNC(=O)OC(C)C)c3nnc(C)n3c2cc1C [Example 467, [4-(7-methoxy-1,8-dimethyl-[1,2,4]triazolo[4,3-a]quinoxaline-4-ylamino)-butyl]-carbamic acid isopropylester] | 0.2 | 0.066 | ≤ 0.05 | 0.023 | ≤ 0.5 | ≤ 0.2 | –
COc1cc2nc(NCCCCNC(=O)Oc3ccccc3)c3nnc(C)n3c2cc1OC [Example 67, [4-(7,8-dimethoxy-1-methyl-[1,2,4]triazolo[4,3-a]quinoxaline-4-ylamino)-butyl]-carbamic acid phenylester] | 0.17 | 0.14 | – | 0.019 | ≤ 0.5 | ≤ 0.2 | ≤ 0.05
COc1cc2nc(NCCCCNC(=O)c3ccccc3Cl)c3nnc(C)n3c2cc1OC [Example 99, 2-chloro-N-[4-(7,8-dimethoxy-1-methyl-[1,2,4]triazolo[4,3-a]quinoxaline-4-ylamino)-butyl]-benzamide] | 0.55 | 0.23 | ≤ 0.05 | 0.021 | – | – | –
Cc1nnc2c(NCCCCOC(=O)CC(C)(C)C)nc3ccccc3n12 [Example 633] | 0.9 | 0.75 | ≤ 0.05 | 0.024 | – | – | –
